Experimental data published in PMC5459853, “Cathepsin S inhibition combines control of systemic and peripheral pathomechanisms of autoimmune tissue injury” (Scientific Reports, 2017).
“Also recorded” adds a separate entry of the source.

Legend:
Type in all cases: in vivo
MRL-(Fas)lpr mice [1] = assay: Intravenous recombinant Cat-S injection: albuminuria and glomerular ultrastructure (TEM); settings: 10 µg recombinant Cat-S i.v.
Protocol: (§1) Four-week-old female MRL-(Fas)lpr mice were purchased from Harlan Winkelmann (Borchen, Germany) and kept under pathogen-free conditions in a 12 hour light and dark cycle with free access to food and water. All animal experiments were performed in accordance with the European protection laws of animal welfare, and with approval by the local government authorities Regierung von Oberbayern (reference number: 55.2.1-54-2532.2-11-12). At 11 or 15 weeks of age only mice with proteinuria (Albustix, Bayer AG, Leverkusen, Germany) were randomized into five different groups (n = 10) receiving different medicated diets: Three groups were fed with chow mixed with either 3, 10 or 30 mg/kg/day RO5459072, another group’s chow was mixed with 100 mg/kg/day mycophenolate mofetil (MMF), and one group received a standard diet (vehicle). The dose of MMF was chosen according to several studies reporting strong efficacy on SLE and lupus nephritis in MRL-(Fas)lpr mice[24]–[26]. […] At the age of 19 weeks all mice were sacrificed by cervical dislocation. Blood and urine samples were collected at different time points as indicated. In other experiments 7 week old female MRL-(Fas)lpr mice were randomized into three groups (n = 3) to receive a single intravenous injection of 10 µg sterile recombinant Cat-S and one group receiving vehicle (100 µl sterile PBS). One of the Cat-S groups was pretreated with 30 mg/kg/day RO5459072 starting one week prior to Cat-S injection; another group was pretreated with a total of four daily intra-peritoneal injections of the PAR-2 inhibitor GB83 (10 mg/kg).
Urinary albumin/creatinine ratios were determined using the Mouse Albumin ELISA Quantitation set (Bethyl Laboratories, Montgomery, TX) and the Creatinine FS kit (DiaSys Diagnostic Systems, Holzheim, Germany)[44]. BUN levels were determined in plasma samples using a Urea FS kit (DiaSys Diagnostic Systems). Mouse IgM, IgG and its isotypes IgG1, IgG2a and IgG2b plasma levels were measured using ELISA Sets (Bethyl Laboratories) at a plasma dilution of 1:1,000 to 1:100,000. Double-stranded DNA IgG and IgM antibodies were quantified as described. Briefly, 96 well Nunc-Immuno plates (Thermo Fisher Scientific, Roskilde, Denmark) were coated with poly-L-lysine (1:1 diluted with PBS) and incubated for two hours. […] Absorbance was measured at 450 nm using a Tecan Microplate Reader (Biotek, Winnoski, VT). Indirect immunofluorescence was used to quantify ANA in mouse plasma. […]
Mouse kidney tissue was fixed in 2% paraformaldehyde/2% glutaraldehyde and 0.1M sodium phosphate buffer (pH 7.4) for 24 hours and processed as described. Samples were analyzed with a 1200EX electron microscope (JEOL, Tokyo, Japan).

MRL-(Fas)lpr mice [2] = assay: Experimental SLE and lupus nephritis, treatment week 11 to 19
Protocol: as §1
(§2) Kidney tissue samples were collected from all mice and fixed overnight in 4% buffered formalin. Subsequently the fixed tissue samples were embedded in paraffin and cut into 4 µm thick serial sections. Kidney paraffin sections were stained with periodic acid-Schiff (PAS) reaction using standardized protocols as described. Scoring of lupus nephritis activity and chronicity indices was performed according to human lupus nephritis, [43]. Methenamine silver staining was performed on paraffin embedded kidney sections and semiquantitatively scored form 0–3 by a blinded observer. For immunostaining the following primary antibodies were used: anti-mouse CD3 (Abcam, Cambridge, UK), complement C3c (Biobyt Ltd, Cambridge, UK), CD31 (Dianova GmbH, Hamburg, Germany), WT1 (Santa Cruz Biotechnology, Dallas, Texas) and nephrin (Acris Antibodies, San Diego, CA). The immunostaining for C3c and CD31 were analyzed using the ImageJ software by measuring positively stained area and dividing it by the total area of the glomerulus and reported as percentage of +ve area. Sections stained for WT1/nephrin and CD3 were evaluated by counting positive cells per glomerulus. All the morphometric analysis were carried out in a blinded fashion.
(§3) Urinary albumin/creatinine ratios were determined using the Mouse Albumin ELISA Quantitation set (Bethyl Laboratories, Montgomery, TX) and the Creatinine FS kit (DiaSys Diagnostic Systems, Holzheim, Germany)[44]. BUN levels were determined in plasma samples using a Urea FS kit (DiaSys Diagnostic Systems). Mouse IgM, IgG and its isotypes IgG1, IgG2a and IgG2b plasma levels were measured using ELISA Sets (Bethyl Laboratories) at a plasma dilution of 1:1,000 to 1:100,000. Double-stranded DNA IgG and IgM antibodies were quantified as described. Briefly, 96 well Nunc-Immuno plates (Thermo Fisher Scientific, Roskilde, Denmark) were coated with poly-L-lysine (1:1 diluted with PBS) and incubated for two hours. After washing the plates, the plates were coated with 1 µg/ml mouse tail dsDNA sparing the wells for standards, which were coated with anti-mIgG and anti-mIgM (Bethyl Laboratories). The standard curve was fixed from purified mIgG and mIgM (Bethyl Laboratories). The plasma samples were diluted 1:1,000 and added into the wells. After 1 h the assay was developed using HRP-labelled goat anti-mIgG and anti-mIgM and TMB substrate (BD Bioscience, San Diego, CA). […]

MRL-(Fas)lpr mice [3] = assay: Experimental lupus nephritis, late onset of treatment week 15 to 19; settings: late onset week 15-19
Protocol: To further assess the potency of Cat-S inhibition to control advanced lupus nephritis we performed identical experiments with the highest dose of RO5459072 and MMF, which were not initiated before week 15 of age and continued for only 4 weeks and terminated again at week 19.
as §1, §2
as §3, with “Laboratories).” for “Laboratories). The standard curve was fixed from purified mIgG and mIgM (Bethyl Laboratories). The plasma samples were diluted 1:1,000 and added into the wells. After 1 h the assay was developed using HRP-labelled goat anti-mIgG and anti-mIgM and TMB substrate (BD Bioscience, San Diego, CA).”

Row | Compound | Cat-S-induced albuminuria (MRL-(Fas)lpr mice [1]; 30 min, RO5459072 30 mg/kg/day pretreatment, GB83 10 mg/kg i.p.) | Cat-S-induced glomerular endothelial cell injury (TEM) (MRL-(Fas)lpr mice [1]; 24 h) | food intake or body weight between groups (MRL-(Fas)lpr mice [2]; medicated diets, throughout the study period) | intrarenal mRNA expression of IL-6, MCP-1/CCL2, RANTES/CCL5 and CXCL2 (MRL-(Fas)lpr mice [2]; real time PCR, kidney) | intrarenal mRNA expression of TNF-α, IFN-γ and SDF-1/CXCL12 (MRL-(Fas)lpr mice [2]; real time PCR, kidney) | blood urea nitrogen (BUN) over time (MRL-(Fas)lpr mice [2]; week 11-19) | total levels of plasma IgM (MRL-(Fas)lpr mice [2]; week 11-19, ELISA) | plasma dsDNA IgG levels (IgG autoantibodies) (MRL-(Fas)lpr mice [2]; week 11-19, RO5459072 highest dose, MMF 100 mg/kg/day, ELISA) | spleen CD11c+/CD11b+/MHCII+ antigen-presenting cells (MRL-(Fas)lpr mice [2]; week 11-19, flow cytometry) | integrity of the glomerular vasculature (CD31 staining) (MRL-(Fas)lpr mice [2]; week 19) | anti-dsDNA IgM (MRL-(Fas)lpr mice [3]) | lupus nephritis disease chronicity index (MRL-(Fas)lpr mice [3]) | plasma IgM levels (MRL-(Fas)lpr mice [3]) | proteinuria and BUN at week 19 compared to control mice (MRL-(Fas)lpr mice [3]) | plasma IgG and its isotypes and anti-dsDNA IgG (MRL-(Fas)lpr mice [3]; highest dose of RO5459072, MMF)
1 | CC[C@H](C)[C@H](NC(=O)[C@H](CC1CCCCC1)NC(=O)c1ccno1)C(=O)N1CCC2(CCc3ccccc32)CC1 [GB83, reference compound] | completely prevented; also recorded: entirely blocked | completely prevented |  |  |  |  |  |  |  |  |  |  |  |  | 
2 | COc1c(C)c2c(c(O)c1C/C=C(\C)CCC(=O)OCCN1CCOCC1)C(=O)OC2 [MMF, mycophenolate mofetil, reference compound] |  |  | no significant difference | suppressed | remained unaffected | prevented the progressive increase | suppressed plasma IgM levels below baseline | does not reduce | suppressed | improved | did not affect | failed to significantly suppress | trend toward lower | significantly reduced | had no effect
